Test results published in US11071727B2, “Therapeutic targeting of proteolytic cleavage of the mixed lineage leukemia gene product (MLL1) by taspase1 using kinase inhibitors” (Northwestern University, priority 2018, dated 2021).

Experiments:
Type in all cases: cell-based, human
JUP and SLC43A2 mRNA = experiment: mRNA levels of JUP and SLC43A2 genes in SEM cells
Description: RNA-seq Analysis. Gene count tables were constructed using HTseq (Anders et al. 2015) with Ensembl gene annotations and used as input for edgeR 3.0.8 (Robinson et al. 2010). Genes with Benjamini-Hochburg adjusted p-values less than 0.01 were considered to be differentially expressed. GO enrichment analysis was evaluated by the MetaScape online software suite (Tripathi et al. 2015).

MLL1 chromatin occupancy = experiment: ChIP-seq of MLL1 occupancy in 293T cells; conditions: relative to DMSO control
Description: (§1) FIG. 6. CKII inhibition increases genome-wide MLL occupancy and excludes SEC recruitment in MLL leukemia cells. (A) and (B) MLL1C occupancy in CX-4945 or TTP22 treated cells were shown relative to DMSO control. […] (C) Track examples of the MLL1 occupancy at the promoter regions of ELF2 and C6orf211. (D) CX-4945 inhibition of leukemia cell proliferation. Multiple MLL leukemia (orange lines) and non-MLL leukemia (blue lines) were cultured with different doses of CX-4945 for 3 days. Cell number was determined by cell counter and normalized to DMSO control. (E) SEM cells were treated with 0, 5 or 10 μM of CX-4945 for 30 hours and western blot was performed to determine the MLL1 full-length protein levels and MLL-AF4 fusion protein levels. (F) MLL-AFF1, AFF4 and ELL2 occupancies were decreased by CX-4945 treatment in SEM cells.
ChIP-seq Analysis. 5×10^7 cells were used for each ChIP assay, as performed as previously described (Chen et al. 2015). Peaks were called with MACS v1.4.2 (Zhang et al. 2008) using default parameters and were annotated by the HOMER software (Heinz et al. 2010). Metaplots were generated using ngsplot (Shen et al. 2014). […] Differential occupancy of MLL1 was evaluated by edgeR, and peaks with Benjamini-Hochburg adjusted p-values less than 0.05 were considered to be differentially occupied. […]

MLL1, MLL-AF4 = experiment: Western blot of MLL1 full-length and MLL-AF4 fusion protein levels in SEM cells; conditions: SEM cells, 0, 5 or 10 μM, 30 hours
Description: as §1
Cell culture. All of the cell lines were purchased from the American Type Culture Collection (Rockville, Md.). 293T, MCF7 and HCT116 cell lines were maintained in Dulbecco's modified Eagle's medium (DMEM) (Gibco, Gaithersburg, Md.) supplemented with 10% fetal bovine serum (FBS) (Gibco) at 37° with 5% CO2. SEM was maintained in IMDM with 10% FBS. MM6 was maintained in RPMI1640 supplemented with 10% FBS and non-essential amino acids. MOLM13, RS4:11, MV4-11, RL, REH, U937m SU-DHL-6 and OCI-LY1 were maintained in RPMI1640 supplemented with 10% FBS. […]

MLL2, TFIIA = experiment: Western blot of MLL2 and TFIIA cleavage in 293T cells treated with CX-4945; conditions: 10 μM, 30 hours
Description: FIG. 5. CKII inhibitors selectively increase full-length MLL1 protein levels by decreasing the phosphorylation of MLL1 near the cleavage sites. (A) Conservation of the sequences flanking MLL1-CS2, MLL2 and TFIIA cleavage sites and phosphorylated serine and threonine residues after the cleavage sites (highlighted in red). (B) and (C) 293T cells were transfected with vector control (VT), WT, AA or DD reporter constructs of MLL1-p75 or TFIIA. Western blot was performed with anti-Flag antibody for MLL1 (p75: FL, p47: cleaved) or TFIIA (p54: FL, p47: cleaved). (D) and (E) 293T cells were transfected with WT or AA reporter constructs of MLL1-p75 or TFIIA in the presence or absence of HA-taspase1. Western blot was performed with anti-Flag antibody for MLL1 or TFIIA, or anti-HA antibody for taspase1. (F) 293T cells were infected with shRNAs against CKIIα or CKIIα′. Western blot was performed with anti-MLL1C antibody for MLL1 full-length protein levels, and CKIIα or CKIIα′ for knockdown efficiency. (G) 293T cells were treated with DMSO or 10 μM CX-4945 for 30 hours. Cells were harvested and lysed for Western blot against MLL1, MLL2 or TFIIA using β-tubulin as the loading control. (H) and (I) 293T taspase1 KO cells were pre-treated with CX-4945 (3 μM) or TTP22 (10 μM) for 30 hours. […]

SMILES: O=C(O)c1ccc2c(c1)nc(Nc1cccc(Cl)c1)c1ccncc12 [CX-4945, 5-(3-chlorophenylamino)benzo[c][2,6]naphthyridine-8-carboxylic acid]
- mRNA levels of JUP and SLC43A2 genes (JUP and SLC43A2 mRNA): decrease of mRNA levels
- MLL1 occupancy (genome-wide) (MLL1 chromatin occupancy): global increase of MLL1 occupancy
- MLL1-FL protein levels (MLL1, MLL-AF4): MLL1-FL protein levels also increased
- MLL-AF4 protein levels (MLL1, MLL-AF4): without altering MLL-AF4 protein levels
- cleavage of MLL2 or TFIIA (MLL2, TFIIA): without affecting the cleavage of MLL2 or TFIIA
